The source of these data is patent US8217048B2, “Inhibitors of serine proteases, particularly HCV NS3-NS4A protease” (Vertex Pharmaceuticals Incorporated, priority 2003, dated 2012).

A value given as a limit tells only on which side of the number the result lay.

For assay [1], the system named is Cells containing hepatitis C virus (HCV) replicon. The experiment in a line: HCV Replicon Cell Assay (Example 4). The conditions noted are these: 48 h, tested according to Example 4 (cell), 50% inhibition of HCV RNA level, 48-hour incubation. Format: cell-based. The procedure: HCV Replicon Cell Assay Protocol
Cells containing hepatitis C virus (HCV) replicon were maintained in DMEM containing 10% fetal bovine serum (FBS), 0.25 mg per ml of G418, with appropriate supplements (media A).
On day 1, replicon cell monolayer was treated with a trypsin:EDTA mixture, removed, and then media A was diluted into a final concentration of 100,000 cells per ml wit. 10,000 cells in 100 ul were plated into each well of a 96-well tissue culture plate, and cultured overnight in a tissue culture incubator at 37° C.
On day 2, compounds (in 100% DMSO) were serially diluted into DMEM containing 2% FBS, 0.5% DMSO, with appropriate supplements (media B). The final concentration of DMSO was maintained at 0.5% throughout the dilution series.
Media on the replicon cell monolayer was removed, and then media B containing various concentrations of compounds was added. Media B without any compound was added to other wells as no compound controls.
Cells were incubated with compound or 0.5% DMSO in media B for 48 hours in a tissue culture incubator at 37° C. At the end of the 48-hour incubation, the media was removed, and the replicon cell monolayer was washed once with PBS and stored at −80° C. prior to RNA extraction.
Culture plates with treated replicon cell monolayers were thawed, and a fixed amount of another RNA virus, such as Bovine Viral Diarrhea Virus (BVDV) was added to cells in each well, RNA extraction reagents (such as reagents from RNeasy kits) were added to the cells immediately to avoid degradation of RNA. Total RNA was extracted according the instruction of manufacturer with modification to improve extraction efficiency and consistency. Finally, total cellular RNA, including HCV replicon RNA, was eluted and stored at −80° C. until further processing.
A Taqman real-time RT-PCR quantification assay was set up with two sets of specific primers and probe. One was for HCV and the other was for BVDV. Total RNA extractants from treated HCV replicon cells was added to the PCR reactions for quantification of both HCV and BVDV RNA in the same PCR well. Experimental failure was flagged and rejected based on the level of BVDV RNA in each well. The level of HCV RNA in each well was calculated according to a standard curve run in the same PCR plate. The percentage of inhibition or decrease of HCV RNA level due to compound treatment was calculated using the DMSO or no compound control as 0% of inhibition. The IC50 (concentration at which 50% inhibition of HCV RNA level is observed) was calculated from the titration curve of any given compound.

Another assay has as its target T1, HCV NS3-NS4A protease (Hepatitis C virus genotype 1a, UniProt P27958).
T1 construct: The buffer, KK4A, DTT, and tNS3 were combined
In words: HCV Ki Assay (enzyme, Example 5). The conditions noted are these: Ki values, tested according to Example 5 (enzyme); 5AB substrate, tNS3 with KK4A. Type of assay: biochemical. The procedure:
HPLC Microbore Method for Separation of 5AB Substrate and Products
NH2-Glu-Asp-Val-Val-(alpha)Abu-Cys-Ser-Met-Ser-Tyr-COOH
A stock solution of 20 mM 5AB (or concentration of your choice) was made in DMSO w/0.2M DTT. This was stored in aliquots at −20 C.
Buffer: 50 mM HEPES, pH 7.8; 20% glycerol; 100 mM NaCl
Total assay volume was 100 μL
The buffer, KK4A, DTT, and tNS3 were combined; distributed 78 μL each into wells of 96 well plate. This was incubated at 30 C for ˜5-10 min.
2.5 μL of appropriate concentration of test compound was dissolved in DMSO (DMSO only for control) and added to each well. This was incubated at room temperature for 15 min.
Initiated reaction by addition of 20 μL of 250 μM 5AB substrate (25 μM concentration is equivalent or slightly lower than the Km for 5AB).
Incubated for 20 min at 30 C.
Terminated reaction by addition of 25 μL of 10% TFA
Transferred 120 μL aliquots to HPLC vials
Separated SMSY product from substrate and KK4A by the following method:
Microbore Separation Method:
Instrumentation: Agilent 1100
Column thermostated chamber G1316A
Diode array detector G1315A
Solvent A=HPLC grade water+0.1% TFA
Solvent B=HPLC grade acetonitrile+0.1% TFA
Stop time: 17 min Post-run time: 10 min.

T1 sequence (P27958 1658-1711): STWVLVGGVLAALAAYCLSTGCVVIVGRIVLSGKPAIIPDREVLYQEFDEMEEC
T1 sequence (P27958 1027-1208): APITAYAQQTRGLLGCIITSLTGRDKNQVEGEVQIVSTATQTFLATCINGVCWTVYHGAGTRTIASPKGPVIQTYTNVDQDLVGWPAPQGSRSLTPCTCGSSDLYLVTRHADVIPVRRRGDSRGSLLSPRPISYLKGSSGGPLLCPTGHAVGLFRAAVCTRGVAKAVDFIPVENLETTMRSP

With `CCC[C@H](NC(=O)[C@@H]1C[C@@H](Oc2cc(F)cc(F)c2)CN1C(=O)[C@@H](NC(=O)[C@@H](NC(=O)c1cnccn1)C1CCCCC1)C(C)(C)C)C(=O)C(=O)NC1CC1` [Compound 55], in assay [1], the IC50 (in general, the point on the concentration scale where inhibition reaches its midpoint) was under 500 nM. Moreover, the Ki (commonly the equilibrium dissociation constant of an inhibitor or competing ligand from its target) on HCV NS3-NS4A protease is 100 to 300 nM.
The molecule `CCC[C@H](NC(=O)[C@@H]1C[C@@H](Oc2ccc(Cl)c(Cl)c2)CN1C(=O)[C@@H](NC(=O)[C@@H](NC(=O)c1cnccn1)C1CCCCC1)C(C)(C)C)C(=O)C(=O)NC1CC1` [Compound 53] had an IC50 in assay [1] of under 500 nM. The molecule further yielded a Ki on HCV NS3-NS4A protease of under 100 nM.
For `CCC[C@H](NC(=O)[C@@H]1C[C@@H](Oc2ccncn2)CN1C(=O)[C@@H](NC(=O)[C@@H](NC(=O)c1cnccn1)C1CCCCC1)C(C)(C)C)C(=O)C(=O)NC1CC1` [Compound 50], in that order: under 500 nM and 100 to 300 nM.
In turn, `CCC[C@H](NC(=O)[C@@H]1C[C@@H](Oc2cc(OC)cc(OC)c2)CN1C(=O)[C@@H](NC(=O)[C@@H](NC(=O)c1cnccn1)C1CCCCC1)C(C)(C)C)C(=O)C(=O)NC1CC1` [Compound 24] displayed a concentration for half-maximal inhibition (IC50) in assay [1] of under 500 nM. This molecule also came in with a Ki at HCV NS3-NS4A protease of under 100 nM.
For `CCC[C@H](NC(=O)C1C[C@@H](Oc2ccccc2F)CN1C(=O)[C@@H](NC(=O)[C@@H](NC(=O)c1cnccn1)C1CCCCC1)C(C)(C)C)C(=O)C(=O)NC1CC1` (some centres unmarked) [Compound 4], in that order: 500 to 1000 nM and 100 to 300 nM.
On the same counts, the results for `CCC[C@H](NC(=O)C1C[C@@H](Oc2cc(Cl)ccc2Cl)CN1C(=O)[C@@H](NC(=O)[C@@H](NC(=O)c1cnccn1)C1CCCCC1)C(C)(C)C)C(=O)C(=O)NC1CC1` (some centres unmarked) [Compound 3] are 500 to 1000 nM and 100 to 300 nM.
On the same counts, the results for `CCC[C@H](NC(=O)[C@@H]1C[C@@H](Oc2ccnc3ccccc23)CN1C(=O)[C@@H](NC(=O)[C@@H](NC(=O)c1cnccn1)C1CCCCC1)C(C)(C)C)C(=O)C(=O)NC1CC1` [Compound 39] are under 500 nM and under 100 nM.
Turning to `CCC[C@H](NC(=O)[C@@H]1C[C@@H](Oc2cccc(NC(C)=O)c2)CN1C(=O)[C@@H](NC(=O)[C@@H](NC(=O)c1cnccn1)C1CCCCC1)C(C)(C)C)C(=O)C(=O)NC1CC1` [Compound 49], in assay [1], the IC50 is over 1000 nM. Besides, on HCV NS3-NS4A protease, the Ki was under 100 nM.
On the same counts, the results for `CCC[C@H](NC(=O)[C@@H]1C[C@@H](Oc2ccccn2)CN1C(=O)[C@@H](NC(=O)[C@@H](NC(=O)c1cnccn1)C1CCCCC1)C(C)(C)C)C(=O)C(=O)NC1CC1` [Compound 58] are under 500 nM and under 100 nM.
For `CCC[C@H](NC(=O)[C@@H]1C[C@@H](Oc2cccc(F)c2)CN1C(=O)[C@@H](NC(=O)[C@@H](NC(=O)c1cnccn1)C1CCCCC1)C(C)(C)C)C(=O)C(=O)NC1CC1` [Compound 18], in that order: under 500 nM and 100 to 300 nM.
On the same counts, the results for `CCC[C@H](NC(=O)C1C[C@@H](Oc2cc(F)ccc2F)CN1C(=O)[C@@H](NC(=O)[C@@H](NC(=O)c1cnccn1)C1CCCCC1)C(C)(C)C)C(=O)C(=O)NC1CC1` (some centres unmarked) [Compound 8] are 500 to 1000 nM and 100 to 300 nM.
`CCC[C@H](NC(=O)[C@@H]1C[C@@H](Oc2ccc(F)c(F)c2)CN1C(=O)[C@@H](NC(=O)[C@@H](NC(=O)c1cnccn1)C1CCCCC1)C(C)(C)C)C(=O)C(=O)NC1CC1` [Compound 54]: in assay [1], the IC50 was under 500 nM. Also, the Ki on HCV NS3-NS4A protease is under 100 nM.
On the same counts, the results for `CCC[C@H](NC(=O)[C@@H]1C[C@@H](Oc2ccc(-c3ccccc3)cc2)CN1C(=O)[C@@H](NC(=O)[C@@H](NC(=O)c1cnccn1)C1CCCCC1)C(C)(C)C)C(=O)C(=O)NC1CC1` [Compound 19] are under 500 nM and under 100 nM.
For `CCC[C@H](NC(=O)[C@@H]1C[C@@H](Oc2ccccc2Cl)CN1C(=O)[C@@H](NC(=O)[C@@H](NC(=O)c1cnccn1)C1CCCCC1)C(C)(C)C)C(=O)C(=O)NC1CC1` [Compound 20], in that order: 500 to 1000 nM and under 100 nM.
For `CCC[C@H](NC(=O)C1C[C@@H](Oc2cc(Cl)cc(Cl)c2)CN1C(=O)[C@@H](NC(=O)[C@@H](NC(=O)c1cnccn1)C1CCCCC1)C(C)(C)C)C(=O)C(=O)NC1CC1` (some centres unmarked) [Compound 12], in that order: under 500 nM and 100 to 300 nM.
Consider `CCC[C@H](NC(=O)[C@@H]1C[C@@H](Oc2ccc(OC)c3ccccc23)CN1C(=O)[C@@H](NC(=O)[C@@H](NC(=O)c1cnccn1)C1CCCCC1)C(C)(C)C)C(=O)C(=O)NC1CC1` [Compound 38], for which, in assay [1], the IC50 was under 500 nM. For the same molecule, the Ki on HCV NS3-NS4A protease was under 100 nM.
On the same counts, the results for `CCC[C@H](NC(=O)C1C[C@@H](Oc2cccc(F)c2F)CN1C(=O)[C@@H](NC(=O)[C@@H](NC(=O)c1cnccn1)C1CCCCC1)C(C)(C)C)C(=O)C(=O)NC1CC1` (some centres unmarked) [Compound 7] are under 500 nM and 100 to 300 nM.
Consider `CCC[C@H](NC(=O)[C@@H]1C[C@@H](Oc2ccc([N+](=O)[O-])cn2)CN1C(=O)[C@@H](NC(=O)[C@@H](NC(=O)c1cnccn1)C1CCCCC1)C(C)(C)C)C(=O)C(=O)NC1CC1` [Compound 26], for which the half-inhibitory concentration (IC50) in assay [1] was under 500 nM. For the same molecule, the Ki at HCV NS3-NS4A protease lay within 100 to 300 nM.
`CCC[C@H](NC(=O)[C@@H]1C[C@@H](Oc2ccc(OC)cc2Cl)CN1C(=O)[C@@H](NC(=O)[C@@H](NC(=O)c1cnccn1)C1CCCCC1)C(C)(C)C)C(=O)C(=O)NC1CC1` [Compound 64] showed an IC50 in assay [1] of under 500 nM. On HCV NS3-NS4A protease, this molecule displayed a Ki of under 100 nM.
On the same counts, the results for `CCC[C@H](NC(=O)C1C[C@@H](Oc2ccc(Cl)cc2Cl)CN1C(=O)[C@@H](NC(=O)[C@@H](NC(=O)c1cnccn1)C1CCCCC1)C(C)(C)C)C(=O)C(=O)NC1CC1` (some centres unmarked) [Compound 2] are 500 to 1000 nM and 100 to 300 nM.
For `CCC[C@H](NC(=O)[C@@H]1C[C@@H](Oc2cccc(Cl)c2)CN1C(=O)[C@@H](NC(=O)[C@@H](NC(=O)c1cnccn1)C1CCCCC1)C(C)(C)C)C(=O)C(=O)NC1CC1` [Compound 66], in that order: under 500 nM and 100 to 300 nM.
On the same counts, the results for `CCC[C@H](NC(=O)[C@@H]1C[C@@H](Oc2nc(C(F)(F)F)nc3ccccc23)CN1C(=O)[C@@H](NC(=O)[C@@H](NC(=O)c1cnccn1)C1CCCCC1)C(C)(C)C)C(=O)C(=O)NC1CC1` [Compound 60] are over 1000 nM and 100 to 300 nM.
`CCC[C@H](NC(=O)[C@@H]1C[C@@H](Oc2ccc(Cl)cn2)CN1C(=O)[C@@H](NC(=O)[C@@H](NC(=O)c1cnccn1)C1CCCCC1)C(C)(C)C)C(=O)C(=O)NC1CC1` [Compound 59, Pyrazine-2-carboxylic acid ({1-[4-(5-chloro-pyridin-2-yloxy)-2-(1-cyclopropylaminooxalyl-butylcarbamoyl)-pyrrolidine-1-carbonyl]-2,2-dimethyl-propylcarbamoyl}-cyclohexyl-methyl)-amide] displayed an IC50 in assay [1] of under 500 nM. Besides, at HCV NS3-NS4A protease, the Ki was under 100 nM.
Consider `CCC[C@H](NC(=O)[C@@H]1C[C@@H](Oc2ccc(C(=O)N3CCN(C(=O)OCc4ccccc4)CC3)cc2)CN1C(=O)[C@@H](NC(=O)[C@@H](NC(=O)c1cnccn1)C1CCCCC1)C(C)(C)C)C(=O)C(=O)NC1CC1` [Compound 70], for which the IC50 in assay [1] fell in the range of 500 to 1000 nM. For the same molecule, on HCV NS3-NS4A protease, the Ki is 100 to 300 nM.
On the same counts, the results for `CCC[C@H](NC(=O)[C@@H]1C[C@@H](Oc2cccc(S(=O)(=O)NC)c2)CN1C(=O)[C@@H](NC(=O)[C@@H](NC(=O)c1cnccn1)C1CCCCC1)C(C)(C)C)C(=O)C(=O)NC1CC1` [Compound 47] are under 500 nM and over 300 nM.
